According to ChEMBL document CHEMBL1146614, “High-affinity thrombin receptor (PAR-1) ligands: a new generation of indole-based peptide mimetic antagonists with a basic amine at the C-terminus” (Bioorg Med Chem Lett, 2003):

How the values were obtained:
[1] = biological target: T1, Proteinase-activated receptor 1 (Homo sapiens, UniProt P25116); experiment: Ability to inhibit the binding of [3H]S-(p-F-Phe)-homoarginine-L-homoarginine-KY-NH2 to thrombin receptor on the membranes of CHRF-288-11 cells
T1 sequence (P25116 whole entry): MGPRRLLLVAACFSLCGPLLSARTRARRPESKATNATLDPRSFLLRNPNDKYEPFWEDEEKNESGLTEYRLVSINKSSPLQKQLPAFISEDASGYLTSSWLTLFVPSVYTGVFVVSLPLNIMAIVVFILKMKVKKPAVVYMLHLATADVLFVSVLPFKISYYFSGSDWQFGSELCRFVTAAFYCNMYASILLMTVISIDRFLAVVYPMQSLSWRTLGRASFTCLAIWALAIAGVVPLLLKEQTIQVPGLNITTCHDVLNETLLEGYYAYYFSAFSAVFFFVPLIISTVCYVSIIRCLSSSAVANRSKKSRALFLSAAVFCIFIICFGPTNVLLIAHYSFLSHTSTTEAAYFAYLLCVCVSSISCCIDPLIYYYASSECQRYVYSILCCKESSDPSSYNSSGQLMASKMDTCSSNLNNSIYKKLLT

[2] = Ability to block U-46,619 (0.3 uM)-induced platelet aggregation; inactive at a concentration of 50 uM; format: functional
[3] = Ability to block thrombin (0.15 nM)-induced platelet aggregation; format: functional
[4] = Ability to block TRAP-6 (2 uM)-induced platelet aggregation; format: functional
[5] = Ability to block U-46,619 (0.3 uM)-induced platelet aggregation; format: functional
[6] = Ability to block collagen (3 ug/mL)-induced platelet aggregation; format: functional

IC50 [1]	IC50 [2]	IC50 [3]	IC50 [4]	IC50 [5]	IC50 [6]	Structure (SMILES)
22000 nM	Not Active	23000 nM	4300 nM	–	–	NCC[C@H](NC(=O)[C@H](Cc1ccc(F)c(F)c1)NC(=O)Nc1cccc2c(CN3CCCC3)cn(Cc3c(Cl)cccc3Cl)c12)C(=O)NCCN1CCCC1
–	Not Active	460 nM	50 nM	–	–	NCC[C@H](NC(=O)[C@H](Cc1ccc(F)c(F)c1)NC(=O)Nc1ccc2c(CN3CCCC3)cn(Cc3c(Cl)cccc3Cl)c2c1)C(=O)NCCN1CCCC1
430 nM	–	200 nM	50 nM	17300 nM	11000 nM	NCCCNC(=O)[C@H](CCN)NC(=O)[C@H](Cc1ccc(Cl)cc1)NC(=O)Nc1ccc2c(CN3CCCC3)cn(Cc3c(Cl)cccc3Cl)c2c1
25 nM	–	220 nM	70 nM	24000 nM	4700 nM	CSCC[C@H](NC(=O)[C@H](Cc1ccc(F)c(F)c1)NC(=O)Nc1ccc2c(CN3CCCC3)cn(Cc3c(Cl)cccc3Cl)c2c1)C(=O)NCCN
330 nM	–	1100 nM	190 nM	19800 nM	8400 nM	NCC[C@H](NC(=O)[C@H](Cc1ccc(F)c(F)c1)NC(=O)Nc1ccc2c(CN3CCCC3)cn(Cc3c(Cl)cccc3Cl)c2c1)C(=O)NCc1ccccn1
120 nM	–	810 nM	160 nM	7600 nM	3000 nM	NCC[C@H](NC(=O)[C@H](Cc1ccc(F)c(F)c1)NC(=O)Nc1ccc2c(CN3CCCC3)cn(Cc3c(Cl)cccc3Cl)c2c1)C(=O)NCCc1ccccc1
160 nM	Not Active	780 nM	70 nM	–	7900 nM	NCC[C@H](NC(=O)[C@H](Cc1ccc(F)c(F)c1)NC(=O)Nc1ccc2c(CN3CCCC3)cn(Cc3c(Cl)cccc3Cl)c2c1)C(=O)NCc1ccco1
440 nM	Not Active	340 nM	160 nM	–	–	NCC[C@H](NC(=O)[C@H](Cc1ccc(F)c(F)c1)NC(=O)Nc1ccc2c(CN3CCCC3)cn(Cc3c(Cl)cccc3Cl)c2c1)C(=O)NCc1ccccc1
60 nM	–	1300 nM	60 nM	18600 nM	27000 nM	CSC[C@H](NC(=O)[C@H](Cc1ccc(F)c(F)c1)NC(=O)Nc1ccc2c(CN3CCCC3)cn(Cc3c(Cl)cccc3Cl)c2c1)C(=O)NCCN
70 nM	Not Active	130 nM	50 nM	–	–	NCCNC(=O)[C@H](Cc1ccncc1)NC(=O)[C@H](Cc1ccccc1F)NC(=O)Nc1ccc2c(CN3CCCC3)cn(Cc3c(Cl)cccc3Cl)c2c1
230 nM	Not Active	800 nM	160 nM	–	7000 nM	NCC[C@H](NC(=O)[C@H](Cc1ccc(F)c(F)c1)NC(=O)Nc1ccc2c(CN3CCCC3)cn(Cc3c(Cl)cccc3Cl)c2c1)C(=O)NCc1cccs1
480 nM	–	700 nM	100 nM	6400 nM	6700 nM	COc1ccc(CNC(=O)[C@H](CCN)NC(=O)[C@H](Cc2ccc(F)c(F)c2)NC(=O)Nc2ccc3c(CN4CCCC4)cn(Cc4c(Cl)cccc4Cl)c3c2)cc1
–	Not Active	40000 nM	16000 nM	–	–	NCC[C@H](NC(=O)[C@H](Cc1ccc(F)c(F)c1)NC(=O)Nc1cccc2c1c(CN1CCCC1)cn2Cc1c(Cl)cccc1Cl)C(=O)NCCN1CCCC1
500 nM	–	880 nM	150 nM	10300 nM	6600 nM	NCC[C@H](NC(=O)[C@H](Cc1ccc(F)c(F)c1)NC(=O)Nc1ccc2c(CN3CCCC3)cn(Cc3c(Cl)cccc3Cl)c2c1)C(=O)NCCc1ccccn1
130 nM	–	410 nM	70 nM	18600 nM	30000 nM	NCCCNC(=O)[C@H](Cc1cnc[nH]1)NC(=O)[C@H](Cc1ccc(Cl)cc1)NC(=O)Nc1ccc2c(CN3CCCC3)cn(Cc3c(Cl)cccc3Cl)c2c1
35 nM	Not Active	270 nM	80 nM	–	16500 nM	NCCNC(=O)[C@H](Cc1cccs1)NC(=O)[C@H](Cc1ccc(F)c(F)c1)NC(=O)Nc1ccc2c(CN3CCCC3)cn(Cc3c(Cl)cccc3Cl)c2c1
310 nM	–	250 nM	60 nM	22000 nM	16000 nM	NCCC[C@H](NC(=O)[C@H](Cc1ccc(F)c(F)c1)NC(=O)Nc1ccc2c(CN3CCCC3)cn(Cc3c(Cl)cccc3Cl)c2c1)C(=O)NCCN1CCCC1
90 nM	–	410 nM	130 nM	13700 nM	–	CCNCCNC(=O)[C@H](CCN)NC(=O)[C@H](Cc1ccc(F)c(F)c1)NC(=O)Nc1ccc2c(CN3CCCC3)cn(Cc3c(Cl)cccc3Cl)c2c1
